The subject of the assay is pylorus ligated rats. Description: Pylorus ligated rats: total acid output and ulcer index. It is filed as in vivo, Wistar albino rats. The settings on record: 0.4 mg/kg × 1 day p.o., mean ± SEM. From the text: The distribution of animals in groups, the sequence of trials and the treatment allotted to each group were randomized. Gastric ulceration was produced by pylorus ligation and absolute ethanol administration. In these methods, animals were fasted for 36 hrs before the experiment. Coprohagy was prevented by fasting the animals in cages with grating as the floor. […] The animals were sacrificed using anaesthetic ether after the completion of experiments; the stomachs were removed, opened along the greater curvature, washed with saline and examined with 6.4* (cm diameter) binocular magnifier. Lesions were assessed by two observers unaware of the experimental protocol. […] They were administered per orally, 30 minutes after the drug treatment the animals were subjected to any ulcerogenic procedure. Rats were anesthetized with anaesthetic ether and the portion of abdomen was opened by a small midline incision below the xiphoid process. Pylorus portion of the stomach was lifted and ligated. […] The stomach was isolated from the body and its contents were collected, measured and centrifuged. […] Immediately after the removal of the contents from the stomach, they were examined for lesions in the stomach portion which were measured and expressed in terms of ulcer index calculated as the total ulcerated area divided by the total mucosal area.

Regarding “5-methoxy-2[(4-methoxy-3,5-dimethyl-2-pyridinyl)sulfinyl]-1H-benzimidazole [Omeprazole]”, the Total acid output (pylorus ligation 19 hours) is reported as 72.93 ± 7.17 meq/L/100 g. Under “total ulcerated area divided by total mucosal area”, this substance showed a Ulcer index of 0.88 ± 0.10.

Values taken from US6617338B2, “Orally administrable acid stable antiulcer benzimidazole derivatives” (priority 2000, dated 2003).
